The target in one series is T1, endogenous IKZF1 (Homo sapiens, UniProt Q13422+Q96SW2).
T1 construct: endogenous in cells; host or cells: Jurkat (untransduced for immunostaining; WEIS-EGFP-transduced for the blot)
The series can be described thus: Western blot for IKZF1 in WEIS-EGFP Jurkat cells. In kind it is cell-based. Particulars: Jurkat transduced with EGFP-WEIS, 18 h. (A western blot detects proteins with antibodies after separation by electrophoresis.)

Another series relates to Jurkat cells. The series can be described thus: Compound cellular stability HPLC assay. In kind it is in vitro ADME, human. Particulars: 25 μM. Here is the method: We hypothesized that the time-dependent variation in DC50 values for compound 23 might result from instability in the cellular environment or export from the cells, leading to a lower cellular concentration after the 24 h period. To assess its cellular stability, we incubated Jurkat cells with 25 μM of compound 23 and analyzed how much compound was recovered from the cells after 0.5, 6, and 24 h (Figure S21) using HPLC analysis. […] The data also indicate that compound 23 is being metabolized, transported out of the cells, or both, over a 24 h period, explaining the increase in DC50 value by this time point (Figure G,H).
Figure S21. Assessing crude cellular stability of compound in 23 in mammalian cells using HPLC.
Jurkat cells were incubated with 25 µM of compound 23 for 0.5 h, 6 h, or 24 h. Cells were washed
with PBS and lysed with MeOH, clarified, and analyzed by HPLC. Compound 23 presence in the
lysate was assessed using HPLC at a UV/Vis absorbance of 190 nm. After 0.5 h we observed 130
incubating at rt for 3 minutes, then reading using an EnVision multimode plate reader
(PerkinElmer). The data have been expressed as % of DMSO control. Three biological repeats
were carried out for this assay, with each biological replicate plate comprising three replicate
Compound Cellular Stability HPLC Assay
Analytical HPLC assay to identify compound 23 in mammalian cell lysate. Jurkat cells were
cultured as described previously and seeded at a density of 2.5 × 10^5 cells per well in a 6-well
plate. Cells were treated with 25 µM of compound 23 or DMSO, keeping the final concentration
either 0.5 h, 6 h, or 24 h. Cells were then pelleted, supernatant removed, and cells were washed
twice with 1 mL of PBS, centrifuging each time at 6,500 rpm on a tabletop centrifuge to avoid
prematurely lysing the cells. PBS was then removed, and cells were lysed with 100 µL of HPLC- […]
0.1% formic acid. […] Samples were read using a Shimadzu system […]
processed using LabSolutions (Version 5.117). Sample components were measured using the UV
absorbance at 190 nm and 254 nm. The reported analysis is the UV absorbance at 190 nm. […]

The target of another series is T2, HA-HPRT1-WEIS (Homo sapiens, UniProt Q96SW2+Q9UKT9, N149E/Q147W/Q150I).
T2 construct: IKZF3 130aa-142aa 170-189aa fused to EGFP; HPRT1 (protein of interest, fusion partner N-terminal of the degron); expressed in transfected cells; host or cells: HEK293T, lentivirally transduced (Cilantro2-derived plasmid, Addgene #74450, EGFP replaced by HA-POI-WEIS)
The series can be described thus: HA antibody immunoblotting in HEK293T cells. The series is classed as cell-based. Particulars: 18 h, Western blot.

The next series addresses T3, HA-NanoLuc-WEIS (Homo sapiens, UniProt Q96SW2+Q9UKT9, N149E/Q147W/Q150I).
T3 construct: pLVX-Sprout-IKZF3 130-189aa Q147W N149E Q150I (WEIS); expressed in transfected cells; host or cells: HEK293T, lentiviral transduction, puromycin-selected
The series can be described thus: Nano-Glo luminescence assay in HEK293T cells. The series is classed as cell-based. Particulars: NanoGlo.

In the next series the test system is MM.1S cells. The series can be described thus: TMTpro quantitative proteomics, 16 h. Particulars: 10 μM.
Series [1] addresses WNIQ mutant ZF degron fused to EGFP (Homo sapiens, UniProt Q96SW2+Q9UKT9, Q147W/Q150I/S154Q). The series can be described thus: Ratiometric EGFP:mCherry flow cytometry degradation assay, 18 h. On the technique in general: In flow cytometry, cells or beads pass a laser one at a time.
Series [2] has as its target APIS mutant ZF degron fused to EGFP (Homo sapiens, UniProt Q96SW2+Q9UKT9, N149P/Q147A/Q150I). The series is described as above.
In series [3] the target is FDIP mutant ZF degron fused to EGFP (Homo sapiens, UniProt Q96SW2+Q9UKT9, N149D/Q147F/Q150I/S154P). The description is as above.

SMILES strings stand for the structures. “And” between values parts separate entries of the source, which are not always exact repeats. Equal entries are not always repeated.

WNIQ mutant ZF degron fused to EGFP, sequence (Q9UKT9 130-189 Q147W/Q150I/S154Q): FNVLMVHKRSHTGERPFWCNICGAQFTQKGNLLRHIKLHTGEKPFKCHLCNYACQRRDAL
WNIQ mutant ZF degron fused to EGFP, sequence (Q96SW2 whole entry, the tested form may be a part): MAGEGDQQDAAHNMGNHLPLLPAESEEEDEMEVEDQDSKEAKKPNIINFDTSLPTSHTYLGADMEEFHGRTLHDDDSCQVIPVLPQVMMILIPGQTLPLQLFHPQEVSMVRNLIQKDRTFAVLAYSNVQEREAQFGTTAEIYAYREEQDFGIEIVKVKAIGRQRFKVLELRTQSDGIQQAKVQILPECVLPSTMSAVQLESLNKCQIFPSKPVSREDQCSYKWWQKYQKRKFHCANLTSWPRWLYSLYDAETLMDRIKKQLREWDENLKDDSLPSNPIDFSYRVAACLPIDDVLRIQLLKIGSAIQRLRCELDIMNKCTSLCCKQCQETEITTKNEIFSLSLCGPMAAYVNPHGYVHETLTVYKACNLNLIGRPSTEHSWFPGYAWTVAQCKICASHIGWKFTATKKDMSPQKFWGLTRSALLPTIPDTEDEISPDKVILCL
WNIQ mutant ZF degron fused to EGFP, sequence (Q16531 whole entry partner, the tested form may be a part): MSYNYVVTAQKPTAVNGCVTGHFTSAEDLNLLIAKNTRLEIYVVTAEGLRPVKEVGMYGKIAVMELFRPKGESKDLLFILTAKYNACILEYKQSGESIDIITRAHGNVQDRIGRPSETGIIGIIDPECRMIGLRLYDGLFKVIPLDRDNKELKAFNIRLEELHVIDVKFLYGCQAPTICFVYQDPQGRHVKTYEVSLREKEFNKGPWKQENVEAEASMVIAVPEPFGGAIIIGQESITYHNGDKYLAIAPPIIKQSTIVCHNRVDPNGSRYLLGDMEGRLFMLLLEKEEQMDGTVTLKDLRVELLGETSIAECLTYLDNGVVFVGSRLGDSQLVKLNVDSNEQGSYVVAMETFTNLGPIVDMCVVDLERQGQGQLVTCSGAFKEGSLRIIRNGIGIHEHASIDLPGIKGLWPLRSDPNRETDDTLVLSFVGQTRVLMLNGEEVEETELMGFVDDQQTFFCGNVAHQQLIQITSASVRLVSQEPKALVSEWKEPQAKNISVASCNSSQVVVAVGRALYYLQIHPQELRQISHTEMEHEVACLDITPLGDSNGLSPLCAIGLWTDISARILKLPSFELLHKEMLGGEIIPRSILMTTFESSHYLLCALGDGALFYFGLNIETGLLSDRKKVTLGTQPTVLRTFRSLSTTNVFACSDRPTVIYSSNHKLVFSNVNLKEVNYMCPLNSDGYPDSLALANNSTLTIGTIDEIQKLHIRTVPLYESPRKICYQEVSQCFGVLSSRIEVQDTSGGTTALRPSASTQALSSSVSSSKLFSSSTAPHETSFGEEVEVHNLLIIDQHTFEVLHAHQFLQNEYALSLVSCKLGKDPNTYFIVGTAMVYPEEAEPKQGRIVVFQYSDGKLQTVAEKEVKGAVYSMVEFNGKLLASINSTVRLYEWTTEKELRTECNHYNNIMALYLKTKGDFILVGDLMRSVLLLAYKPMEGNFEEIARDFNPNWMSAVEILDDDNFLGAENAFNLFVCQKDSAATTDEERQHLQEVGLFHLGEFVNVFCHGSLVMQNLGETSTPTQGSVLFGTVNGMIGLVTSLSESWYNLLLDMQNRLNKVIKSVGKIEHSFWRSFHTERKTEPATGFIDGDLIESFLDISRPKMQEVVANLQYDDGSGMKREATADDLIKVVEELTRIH
FDIP mutant ZF degron fused to EGFP, sequence (Q9UKT9 130-189 Q147F/N149D/Q150I/S154P): as the sequence (Q9UKT9 130-189 Q147W/Q150I/S154Q) above, with W18F, N20D, Q25P counted along it
FDIP mutant ZF degron fused to EGFP, sequence (Q96SW2 whole entry, the tested form may be a part): as the sequence (Q96SW2 whole entry, the tested form may be a part) above
FDIP mutant ZF degron fused to EGFP, sequence (Q16531 whole entry partner, the tested form may be a part): as the sequence (Q16531 whole entry partner, the tested form may be a part) above
T3 sequence (Q9UKT9 130-189 Q147W/N149E/Q150I): as the sequence (Q9UKT9 130-189 Q147W/Q150I/S154Q) above, with N20E, Q25S counted along it
T3 sequence (Q96SW2 whole entry): as the sequence (Q96SW2 whole entry, the tested form may be a part) above
T3 sequence (Q16531 whole entry partner): as the sequence (Q16531 whole entry partner, the tested form may be a part) above
APIS mutant ZF degron fused to EGFP, sequence (Q9UKT9 130-189 Q147A/N149P/Q150I): as the sequence (Q9UKT9 130-189 Q147W/Q150I/S154Q) above, with W18A, N20P, Q25S counted along it
APIS mutant ZF degron fused to EGFP, sequence (Q96SW2 whole entry, the tested form may be a part): as the sequence (Q96SW2 whole entry, the tested form may be a part) above
APIS mutant ZF degron fused to EGFP, sequence (Q16531 whole entry partner, the tested form may be a part): as the sequence (Q16531 whole entry partner, the tested form may be a part) above
T2 sequence (Q9UKT9 130-189 Q147W/N149E/Q150I): as the sequence (Q9UKT9 130-189 Q147W/Q150I/S154Q) above, with N20E, Q25S counted along it
T2 sequence (Q96SW2 whole entry, the tested form may be a part): as the sequence (Q96SW2 whole entry, the tested form may be a part) above
T1 sequence (Q13422 whole entry): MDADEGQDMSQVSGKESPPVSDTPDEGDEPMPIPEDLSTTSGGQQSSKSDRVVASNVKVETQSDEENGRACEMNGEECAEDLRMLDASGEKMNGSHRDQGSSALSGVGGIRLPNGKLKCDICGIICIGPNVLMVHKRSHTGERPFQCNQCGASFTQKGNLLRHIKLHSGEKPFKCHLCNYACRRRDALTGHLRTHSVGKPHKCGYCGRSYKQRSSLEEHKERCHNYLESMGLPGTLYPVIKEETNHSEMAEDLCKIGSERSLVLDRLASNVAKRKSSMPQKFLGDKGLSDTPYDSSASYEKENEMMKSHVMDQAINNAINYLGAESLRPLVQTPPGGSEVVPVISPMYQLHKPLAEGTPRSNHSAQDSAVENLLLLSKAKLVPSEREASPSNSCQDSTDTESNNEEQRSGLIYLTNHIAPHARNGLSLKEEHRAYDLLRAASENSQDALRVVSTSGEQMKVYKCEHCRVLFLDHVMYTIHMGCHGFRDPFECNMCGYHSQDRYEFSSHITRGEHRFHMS
T1 sequence (Q96SW2 whole entry): as the sequence (Q96SW2 whole entry, the tested form may be a part) above
T1 sequence (Q16531 whole entry partner): as the sequence (Q16531 whole entry partner, the tested form may be a part) above
Description for HA-NanoLuc-WEIS: To this end, a nuclear protein, CDK9, and a cytoplasmic protein, HPRT1, were selected, in addition to a well-characterized enzyme capable of generating bioluminescence, NanoLuc. , Fusion constructs comprising a POI with an N-terminal HA tag linked to the POI by two glycine residues and a C-terminal WEIS motif linked to the POI by a flexible [sequence] linker region were exogenously expressed in HEK293T cells.
Compound 23 (10 mM stock in DMSO) was serially diluted 10-fold to create an 5-point dilution spanning 1n M–10 μM (final assay concentration) and an untreated control, with all concentrations at 0.1% DMSO. HEK293T cells transduced with HA-NanoLuc-WEIS lentiviral vectors were seeded in white, opaque, flat-bottom 96-well plate (Falcon) at 2 × 10^4 cells per well in 40 µL
signal was measured by adding 40 µL of the Nano-Glo lytic detection reagent (Promega),
(PerkinElmer). […] Three biological repeats
Description for MM.1S cells: Quantitative proteomics screens were carried out in untransduced Jurkat cells, embryonic stem cells (ESCs), and the multiple myeloma cell line, MM.1S. We used Jurkat cells, as our work up to this point had employed this cell line, and we selected ESCs and MM.1S cells as they express known CRBN neosubstrates, including IKZF1, IKZF3, RAB28, RNF166, SALL4, ZFP91, and ZNF827.
Proteomics - cell lysis and protein digestion
The viability of Jurkat cells was tested after 16-h treatment with corresponding chemicals
viable cells in each condition. Next, ~10^7 cells per condition were collected by centrifugation (1000 rpm), washed twice with ice-cold PBS, and lysed in RIPA buffer [50 mM HEPES pH 7.4, 150 mM NaCl, 1% sodium deoxycholate, 1% NP-40, 0.1% SDS, 10 mM sodium pyrophosphate, 10 mM β-glycerophosphate, 2.5 mM MgCl2, 200 µM TCEP, phosphatase and protease inhibitor cocktail (in-house)], to produce whole cell extracts. Whole-cell extracts were sonicated, and protein concentrations were determined using the Bradford assay. Protein extracts (100 µg) were subjected to disulfide bond reduction with 5 mM TCEP (10 min) and alkylation with 25 mM chloroacetamide (20 min). Methanol–chloroform precipitation was performed prior to protease digestion. […]

Turning to `CN1CCN(c2ccc3c(c2)C(=O)N(C2CCC(=O)NC2=O)C3=O)CC1` (stereo not shown) [Compound 23], the “degradation of endogenous IKZF1 (Western blot)” value at endogenous IKZF1 is on record as “showed no degradation”. Moreover, the “compound recovered from cells (HPLC)” value in the series with Jurkat cells (after 0.5 h) is 130 nM; in the series on Jurkat cells (after 6 h), 30 nM; in the series on Jurkat cells (after 24 h) it was “almost no compound remaining”. In addition, the D max is listed as 49% at HA-HPRT1-WEIS, 53% on HA-NanoLuc-WEIS (6 h) and 35% at HA-NanoLuc-WEIS (18 h). Besides, the DC50 at HA-HPRT1-WEIS came to 67.1 nM; on HA-NanoLuc-WEIS (18 h) it was 290 nM; in series [1] (WNIQ, Jurkat, 18 h), 53.7 nM. For the same compound, the “proteins degraded (quantitative proteomics)” value in the series with MM.1S cells is “did not significantly (Welch’s t test) induce degradation of any protein”. Also, the “Selectivity (WT/mutant)” value in series [1] (DC50(WT)/DC50(WNIQ)) came to 11.8. Moreover, the pDC50 in series [1] (WNIQ, Jurkat, 18 h) came out at 7.27.

With `CC(C)(C)c1ccc2c(c1)C(=O)N(C1CCC(=O)NC1=O)C2=O` (stereo not shown) [Compound 19], the DC50 was 74.1 nM in series [2] (APIS, Jurkat, 18 h) and 63.1 nM in series [3] (FDIP, Jurkat, 18 h). In addition, the pDC50 in series [2] (APIS, Jurkat, 18 h) came to 7.13; in series [3] (FDIP, Jurkat, 18 h), 7.20. The “Selectivity (WT/mutant)” value in series [2] (DC50(WT)/DC50(APIS)) is 10.2 and 10; in series [3] (DC50(WT)/DC50(FDIP)) it was 12.0.

Source of the values: PMC12645437, “Orthogonal IMiD-Degron Pairs Induce Selective Protein Degradation in Cells” (ACS Chemical Biology, 2025).
